Measured values reported in patent US20070219141A1, “Plant Materials Extraction Method” (priority 2003, published 2007).

Tests used:
Assay type in all cases: cell-based
Salmonella typhimurium = assay: Disk diffusion assay on agar plates; set-up: key: “+” active; “—” not active
Text: (§1) Microorganisms: Laboratory strains of bacteria and fungus were obtained from Dr. Neil Towers' and Dr. Jovel's lab, The University of British Columbia. Seven species of bacteria and one species of fungus will be used in the screening process. The bacteria strains consisted of Staphylococcus aureus, methicillin resistant Staphylococcus aureus, Bacillus subtilis and Enterococcus faecalis, Escherichia coli, Pseudomonas aeruginosa, and Salmonella typhimurium. The fungal species was Candida albicans.
(§2) Methods: Disk diffusion assay on agar plates inoculated with the organisms being studies. The plates were divided into quadrants or sixths using a black marking pen. In quadrant 1 and 2, negative and positive controls were run (no treatment and gentamicin). Test compounds were run on the remaining available portions.

Pseudomonas aeruginosa = assay: Disk diffusion assay on agar plates; set-up: key: “+” active; “—” not active
Text: as §1, §2

[1] = tested on: all the bacteria and fungus used in above biological screening; assay: Disk diffusion assay, whole panel; conditions: seven bacteria and C. albicans
Text: as §1, §2

Enterococcus faecalis = assay: Disk diffusion assay on agar plates; set-up: key: “+” active; “—” not active
Text: as §1, §2

Candida albicans = assay: Disk diffusion assay on agar plates; set-up: key: “+” active; “—” not active
Text: as §1, §2

## CC1(C)C=CC=C(C(=O)O)C=C1 [Thujic acid standard, thujic acid]
Salmonella typhimurium
  Anti-microbial activity S. t.: +
Pseudomonas aeruginosa
  Anti-microbial activity P. a: —
[1]
  anti-microbial activity over the panel, in words: showed activities against some bacteria and fungus

## CC(C)c1cccc(=O)c(O)c1 [Hinokitiol standard, 2,4,6-Cycloheptatrien-1-one,2-hydroxy-4-(1-methylethyl)]
Pseudomonas aeruginosa
  Anti-microbial activity P. a: +
[1]
  anti-microbial activity over the panel, in words: demonstrated activities against all the bacteria and fungus

## Gentamicin
Enterococcus faecalis
  Anti-microbial activity E. f.: +
Candida albicans
  Anti-microbial activity C. a: —
[1]
  anti-microbial activity over the panel, in words: active against all the tested bacteria but not against C. albicans
